The values that follow come from article PMC5618421, “Anti-Inflammatory Effects of Curvularin-Type Metabolites from a Marine-Derived Fungal Strain Penicillium sp. SF-5859 in Lipopolysaccharide-Induced RAW264.7 Macrophages” (Marine Drugs, 2017).

A word on the IC50: it is the midpoint of a concentration-inhibition curve.

The subject of data set [1] is PGE2 production in LPS-treated RAW 264.7 macrophages. The experiment in a line: Inhibition of PGE2 production (PGE2 ELISA kit) in LPS-treated RAW264.7 macrophages. Format: cell-based. The settings on record: Mus musculus, RAW264.7 macrophages pre-treated 3 h with compound, then LPS (1 μg/mL) 24 h. As to the method: (§1) All isolated compounds (1–9) were evaluated for their anti-inflammatory effects. […] NO is a small molecule which is an intracellular mediator produced in various immune cells. It plays a pivotal role in the physiological and pathological condition of inflammatory symptoms. PGE2 can also regulate the immune and inflammatory responses. In this study, RAW264.7 macrophages were pre-treated for 3 h in the medium containing non-toxic concentrations (Table 2) of each compound (1–9), and then LPS (1 μg/mL) was treated for 24 h. According to the LPS stimulation of RAW264.7 macrophages, production of NO and PGE2 was increased, and the effects of all compounds on the production level of NO and PGE2 were evaluated by the Griess reaction and a PGE2 kit, respectively. […] To evaluate the impact of phenol and resorcinol groups in the curvularin-type metabolites for the anti-inflammatory activity, 5-O-methyl and 5,7,-di-O-methyl derivatives of curvularin (3a and 3b, respectively), as well as 5-O-acetyl and 5,7,-di-O-acetyl derivatives of curvularin (3c and 3d, respectively), were prepared, and the structures of 3a–3d were identified by comparison the ^1H and ^13C-NMR spectroscopic data with those of curvularin (3), and confirmed by their HRESIMS. […] The position of the methoxy group in 3a was confirmed by HMBC correlation between methoxy signal at δH 3.77 (3H, s, 5-OCH3) and δC 161.8 (C-5). The NOESY cross-peaks between acetyl proton ([…]) with H-2, H-4, and H-16 of 3c were used to identify the position of the acetyl group in 3c. […] Further systematic investigations are needed to clarify the structure activity relationship associated with the modification of the aliphatic part of the molecule.
RPMI1640, fetal bovine serum (FBS), and other tissue culture reagents were purchased from Gibco BRL Co. (Grand Island, NY, USA). All other chemicals were obtained from Sigma-Aldrich Co. (St. Louis, MO, USA). Primary antibodies (COX-2: sc-1745; iNOS: sc-650; IκB-α: sc-371; p-IκB-α: sc-8404; p50: sc-7178; p65: sc-8008, Santa Cruz Biotechnology, Dallas, TX, USA, p-ERK: #9101; ERK: #9102; p-JNK: #9251; JNK: #9252S; p-p38: #9211; p38: 9212S, Cell Signaling Technology, Danvers, MA, USA) and secondary antibodies (mouse: ap124p; goat: ap106p; rabbit: ap132p, Millipore, Billerica MA, USA). Enzyme-linked immunosorbent assay (ELISA) kits for PGE2 were purchased from R and D Systems, Inc. (Minneapolis, MN, USA).

Another data set deals with RAW264.7 macrophages. The experiment in a line: Cell viability (MTT) cytotoxic assay. The format is cell-based. As to the method:
RAW264.7 macrophages were maintained at a density of 5 × 10^5 cells/mL in RPMI1640 medium supplemented with 10% heat-inactivated FBS, penicillin G (100 units/mL), streptomycin ([…]), and L-glutamine (2 mM), and were incubated at 37 °C in a humidified atmosphere containing 5% CO2. For determination of cell viability, cells (1 × 10^5 cells/well in 96-well plates) were incubated with 3-(4,5-dimethylthiazol-2-yl)-2,5-diphenyltetrazolium bromide (MTT) at a final concentration of 0.5 mg/mL for 3 h, and the formazan formed was dissolved in acidic 2-propanol. The optical density was measured at 540 nm with a microplate reader (BioRad, Hercules, CA, USA). The optical density of the formazan formed in control (untreated) cells was considered to represent 100% viability.

Data set [2] has as its system NO production in LPS-treated RAW 264.7 macrophages. As to the kind of experiment: Inhibition of NO production (nitrite, Griess reaction) in LPS-treated RAW264.7 macrophages. The format is cell-based. The settings on record: for inhibitory activity on LPS-induced production of NO and PGE2 (in words): LPS-stimulated RAW264.7 macrophages; for IC50: Mus musculus, RAW264.7 macrophages pre-treated 3 h with compound, then LPS (1 μg/mL) 24 h, Griess reaction. The method, then: as §1
As an indicator of NO production in RAW264.7 macrophages, production of nitrite, a stable end-product of NO oxidation, was estimated. Briefly, the concentration of nitrite in the conditioned media was determined by a method based on the Griess reaction, and the details of the assay were described previously.
In general terms: The Griess reaction detects nitrite, a stable product of nitric oxide.

Another data set concerns iNOS and COX-2. Also on record: method as in PMID 18366037, PMID 12527810. The settings on record: human alveolar epithelial A549/8 cells; through blocking activation of STAT-1α; cited from earlier work.
The test system of data set [3] is pro-inflammatory cytokines and chemokines. Further details: method as in PMID 22767531. Particulars: mice model of chronic induced arthritis; cited from earlier work.
In a further data set the test system is E. coli. Further details: method as in PMID 26119337. Particulars: growth of E. coli; cited from earlier work.
Another data set concerns human iNOS promotor. Further details: method as in PMID 18366037. The settings on record: human alveolar epithelial A549/8 cells; compared with (S)-curvularin (3); cited from earlier work.

Take `COC(=O)Cc1cc(O)cc(O)c1C(=O)C[C@H]1CCC[C@@H](C)O1` [Compound 2, curvulone B]: the IC50 in data set [1] was greater than 80 µM. The “Cytotoxicity (the maximum concentration not affecting cell viability)” value in the data set with RAW264.7 macrophages (RAW264.7 macrophages, MTT) was greater than 80 µM. Further, in data set [2], the “inhibitory activity on LPS-induced production of NO and PGE2 (in words)” value is recorded as “appeared to lose the inhibitory activity”; the 50% inhibitory concentration (IC50) was greater than 80 µM.
Turning to `CO[C@@H]1CCC[C@H](C)OC(=O)Cc2cc(O)cc(O)c2C(=O)C1` [Compound 6, (11R,15S)-11-methoxycurvularin], the “Cytotoxicity (the maximum concentration not affecting cell viability)” value with RAW264.7 macrophages (RAW264.7 macrophages, MTT) was 20 µM.
For the compound `COc1cc2c(c(OC)c1)C(=O)CCCCC[C@H](C)OC(=O)C2` [Compound 3b, 5,7-Di-O-methylcurvularin], the IC50 in data set [1] was determined as 49.4 ± 14 µM; in data set [2] it was 60.6 ± 16.4 µM. Also, the “Cytotoxicity (the maximum concentration not affecting cell viability)” value in the data set with RAW264.7 macrophages (RAW264.7 macrophages, MTT) is greater than 80 µM.
`CC1CCCCCC(=O)c2c(O)cc(O)cc2CC(=O)O1` (centres unmarked) [Compound 3, curvularin]: the “inducible transcription and synthesis of iNOS and COX-2” value in the data set on iNOS and COX-2 was “inhibited inducible transcription and synthesis of iNOS and COX-2”. Besides, in data set [3], the “expression of pro-inflammatory cytokines and chemokines” value was “suppressive effect”. The “Cytotoxicity (the maximum concentration not affecting cell viability)” value in the data set on RAW264.7 macrophages (mouse) worked out at 40 µM.
For `C[C@H]1CCC[C@@H](O)CC(=O)c2c(O)cc(O)cc2CC(=O)O1` [Compound 4, (11R,15S)-11-hydroxycurvularin], the IC50 in data set [1] turned out to be 15.6 ± 5.2 µM; in data set [2], 11.5 ± 2.7 µM. In the data set on E. coli, the antibacterial activity entry was “inhibiting the growth of E. coli”. Further, the “Cytotoxicity (the maximum concentration not affecting cell viability)” value in the data set with RAW264.7 macrophages (RAW264.7 macrophages, MTT) is 40 µM.
Turning to `CC(=O)Oc1cc(O)c2c(c1)CC(=O)O[C@@H](C)CCCCCC2=O` [Compound 3c, 5-O-acetylcurvularin], the IC50 in data set [1] was 73.7 ± 17.1 µM; in data set [2], 46.9 ± 3.7 µM. Besides, in the data set on RAW264.7 macrophages (RAW264.7 macrophages, MTT), the “Cytotoxicity (the maximum concentration not affecting cell viability)” value is greater than 80 µM.
With `C[C@H]1CCC/C=C\C(=O)c2c(O)cc(O)cc2CC(=O)O1` [Compound 9, (10Z,15S)-10,11-dehydrocurvularin], the IC50 in data set [1] is 6.2 ± 1.1 µM; in data set [2] it was 4.4 ± 0.8 µM. The “Cytotoxicity (the maximum concentration not affecting cell viability)” value in the data set on RAW264.7 macrophages (RAW264.7 macrophages, MTT) came out at 20 µM.
Take `CO[C@H]1CCC[C@H](C)OC(=O)Cc2cc(O)cc(O)c2C(=O)C1` [Compound 7, (11S,15S)-11-methoxycurvularin]: the “Cytotoxicity (the maximum concentration not affecting cell viability)” value in the data set on RAW264.7 macrophages (RAW264.7 macrophages, MTT) stood at 20 µM.
For `C[C@H]1CCC[C@@H](CC(=O)c2c(O)cc(O)cc2CC(=O)O)O1` [Compound 1, curvulone C], the IC50 in data set [1] is greater than 80 µM. Moreover, the “Cytotoxicity (the maximum concentration not affecting cell viability)” value with RAW264.7 macrophages (RAW264.7 macrophages, MTT) was greater than 80 µM. For the same compound, in data set [2], the “inhibitory activity on LPS-induced production of NO and PGE2 (in words)” value is given as “appeared to lose the inhibitory activity”; the IC50 was greater than 80 µM.
For `COc1cc(O)c2c(c1)CC(=O)O[C@@H](C)CCCCCC2=O` [Compound 3a, 5-O-methylcurvularin], in the data set with RAW264.7 macrophages (RAW264.7 macrophages, MTT), the “Cytotoxicity (the maximum concentration not affecting cell viability)” value was greater than 80 µM.
Regarding `CC(=O)Oc1cc2c(c(OC(C)=O)c1)C(=O)CCCCC[C@H](C)OC(=O)C2` [Compound 3d, 5,7-Di-O-acetylcurvularin], the IC50 was greater than 80 µM in data set [1] and 77.5 ± 9.3 µM in data set [2]. Besides, the “inhibitory effect on the cytokine-mediated induction of the iNOS promotor” value in the data set on human iNOS promotor is recorded as “higher inhibitory effect”. Moreover, in the data set on RAW264.7 macrophages (RAW264.7 macrophages, MTT), the “Cytotoxicity (the maximum concentration not affecting cell viability)” value was greater than 80 µM.
In the case of `C[C@H]1CCC[C@H](O)CC(=O)c2c(O)cc(O)cc2CC(=O)O1` [Compound 5, (11S,15S)-11-hydroxycurvularin], the IC50 in data set [1] is 14.1 ± 4 µM; in data set [2], 7.2 ± 1.6 µM. The antibacterial activity result in the data set with E. coli is “inhibiting the growth of E. coli”. Further, in the data set with RAW264.7 macrophages (RAW264.7 macrophages, MTT), the “Cytotoxicity (the maximum concentration not affecting cell viability)” value was determined as 40 µM.
